Drawing on ChEMBL document CHEMBL1147778, “Development and evaluation of a pharmacophore model for inhibitors of aldosterone synthase (CYP11B2)” (Bioorg Med Chem Lett, 2006), this text covers Ratio IC50 and IC50 for two compounds.

The species named for one test is Homo sapiens. The experiment in a line: Selectivity for human CYP11B1 over CYP11B2.
Test [1] concerns the target T1, Cytochrome P450 11B2, mitochondrial (Homo sapiens, UniProt P19099).
T1 sequence (P19099 whole entry): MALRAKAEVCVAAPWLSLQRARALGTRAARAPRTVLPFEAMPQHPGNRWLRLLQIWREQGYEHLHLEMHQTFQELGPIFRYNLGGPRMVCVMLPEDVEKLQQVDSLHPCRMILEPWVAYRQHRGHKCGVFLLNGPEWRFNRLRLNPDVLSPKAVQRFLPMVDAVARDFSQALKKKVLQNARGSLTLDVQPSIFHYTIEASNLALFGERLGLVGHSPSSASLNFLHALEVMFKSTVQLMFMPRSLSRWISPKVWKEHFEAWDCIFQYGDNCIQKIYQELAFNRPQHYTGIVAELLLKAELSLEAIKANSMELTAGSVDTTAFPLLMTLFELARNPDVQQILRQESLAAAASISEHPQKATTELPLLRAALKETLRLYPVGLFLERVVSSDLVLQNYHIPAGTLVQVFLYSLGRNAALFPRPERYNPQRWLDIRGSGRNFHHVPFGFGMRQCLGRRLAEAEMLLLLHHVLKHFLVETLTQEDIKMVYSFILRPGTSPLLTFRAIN
The experiment in a line: Inhibition of aldosterone synthase (CYP11B2) expressed in V79 hamster fibroblasts.

Test [2] addresses T2, Cytochrome P450 11B1, mitochondrial (Homo sapiens, UniProt P15538).
T2 sequence (P15538 whole entry): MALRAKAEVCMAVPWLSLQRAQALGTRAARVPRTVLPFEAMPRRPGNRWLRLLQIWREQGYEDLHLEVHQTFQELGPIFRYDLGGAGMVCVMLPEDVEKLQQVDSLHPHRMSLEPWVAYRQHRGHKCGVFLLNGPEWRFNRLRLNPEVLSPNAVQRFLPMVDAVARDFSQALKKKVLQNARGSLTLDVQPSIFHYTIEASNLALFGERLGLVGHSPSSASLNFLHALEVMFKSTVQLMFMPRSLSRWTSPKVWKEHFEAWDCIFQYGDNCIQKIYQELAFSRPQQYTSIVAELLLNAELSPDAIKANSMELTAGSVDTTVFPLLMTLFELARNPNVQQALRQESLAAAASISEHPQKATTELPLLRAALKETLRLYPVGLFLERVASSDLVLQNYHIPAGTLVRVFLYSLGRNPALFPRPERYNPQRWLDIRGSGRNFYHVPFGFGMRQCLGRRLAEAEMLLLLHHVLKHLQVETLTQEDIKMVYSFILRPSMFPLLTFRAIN
The experiment in a line: Inhibition of human CYP11B1 expressed in V79 hamster fibroblasts.

For the compound `c1cncc(-c2ccc3cccc4c3c2CC4)c1`, in the test filed under Homo sapiens, the Ratio IC50 came out at 245.
For orientation: IC50 means the concentration that inhibits the measured activity by half. As for `c1cncc(-c2ccc3c4c(cccc24)CC3)c1`, the half-inhibitory concentration (IC50) in test [1] amounted to 14 nM; in test [2], 2900 nM. In the test listed under Homo sapiens, the Ratio IC50 is 207.
